By IC50 is commonly meant the concentration that gives 50% inhibition.

human PAD4, sequence (Q9UM07 2-663): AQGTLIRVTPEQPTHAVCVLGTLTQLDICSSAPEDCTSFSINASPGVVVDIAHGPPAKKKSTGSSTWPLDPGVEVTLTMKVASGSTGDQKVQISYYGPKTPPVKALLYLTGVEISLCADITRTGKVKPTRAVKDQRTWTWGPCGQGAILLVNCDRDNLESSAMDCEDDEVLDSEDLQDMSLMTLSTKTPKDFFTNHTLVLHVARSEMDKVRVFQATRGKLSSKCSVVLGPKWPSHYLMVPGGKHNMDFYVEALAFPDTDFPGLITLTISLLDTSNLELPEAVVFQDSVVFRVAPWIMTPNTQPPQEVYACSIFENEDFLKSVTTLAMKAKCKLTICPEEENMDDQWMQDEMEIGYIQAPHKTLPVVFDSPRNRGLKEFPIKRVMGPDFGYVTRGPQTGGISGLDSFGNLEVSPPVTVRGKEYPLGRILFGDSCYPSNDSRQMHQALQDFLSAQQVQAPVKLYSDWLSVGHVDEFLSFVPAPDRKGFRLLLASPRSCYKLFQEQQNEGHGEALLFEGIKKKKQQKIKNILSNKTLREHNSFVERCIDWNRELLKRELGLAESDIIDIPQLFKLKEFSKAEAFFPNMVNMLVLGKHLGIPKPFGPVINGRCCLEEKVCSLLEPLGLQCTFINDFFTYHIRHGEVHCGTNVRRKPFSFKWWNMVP

The target in this assay is human PAD4 (Homo sapiens (Human), UniProt Q9UM07). Put plainly: In Vitro PAD4 BAEE Biochemical Assay. Particulars: human PAD4, BAEE substrate; 5 nM PAD4, 2 mM calcium chloride, 3 mM BAEE; geometric mean of multiple experiments. The procedure:
The PCR product was ligated into linearized pET-SUMO vector (Invitrogen, Carlsbad, CA), which is part of the Champion™ pET SUMO Protein Expression System. After sequence verification for the correct orientation, the pET-SUMO-hPAD4 expression plasmid was transformed into BL21(DE3) cells.
E. Coli BL21(DE3) cells were inoculated in LB medium with kanamycin at 37° C. until A600 nm reached about 0.5. Protein expression was induced by addition of 0.5 mM IPTG (final) and continued overnight at 16° C. at 220 rpm.
Cells were harvested by centrifugation at 5000 rpm for 10 minutes at 4° C. The pellet was resuspended in 300 ml lysis buffer (20 mM Tris-HCl, pH 8.0, 1 mM EDTA, 500 mM NaCl, 1 mM (tris(2-carboxyethyl)phosphine) (TCEP), 10% glycerol, and 1% Triton X100 and EDTA free protease inhibitor) and lysed by 3× passage through a microfluidizer (Microfluidics, Newton, MA) at 18,000 psi. The cell lysate was clarified by centrifugation at 30,000 rpm for 60 minutes at 4° C. The supernatant was applied to a 5 ml Ni-HP (GE HealthCare Cat #17524701) column preequilibrated in Ni-A buffer (20 mM Tris-HCl, pH 8.0, 20 mM Imidazole, 1 mM TCEP, 10% glycerol, and 400 mM NaCl). Bound protein was eluted with a 0-100% linear gradient of 100 mL Ni-B buffer (Ni A buffer+0.5 M Imidazole).
The His-Sumo tag was cleaved using sumo protease (Thermo Fisher Cat #: 12588018) while dialyzing in buffer (20 mM Tris-HCl, pH 8.0, 1 mM EDTA, 500 mM NaCl, 1 mM TCEP, 10% glycerol). The protein was then reloaded onto a Ni-HP column for a reverse purification step and recovered in flow through fraction. The protein with His-Sumo tag removed was then polished using a 16/60 Superdex-200 gel filtration column with gel filtration buffer (20 mM Tris pH 8.0, NaCl 400 mM and 1 mM TCEP). The fractions containing the protein were pulled and frozen at −80° C.
In Vitro PAD4 BAEE Biochemical Assay
The enzymatic activity of human PAD4 was monitored in a biochemical assay in the presence or absence of compounds using the small peptidyl arginine mimic BAEE (Nα-Benzoyl-L-arginine ethyl ester hydrochloride) as substrate. PAD4 activity led to deimination of BAEE and release of ammonia. Levels of ammonia were monitored by using an amine coupling reaction and were indicative of PAD4 enzymatic activity.
One hundred nanoliters of test compounds dissolved in DMSO at various concentrations were dispensed into a 384-well black OptiPlate using a Labcyte Echo instrument. Ten microliters of a solution of recombinant PAD4 and calcium chloride diluted in PAD4 assay buffer (50 mM MOPS [3-(N-morpholino) propanesulfonic acid], pH 7.6; 50 mM sodium chloride; 0.05% Tween-20; 2 mM dithiothreitol) was added to the compound-containing plate and was incubated for 30 minutes at 25° C. Ten microliters of a solution of BAEE (Sigma-Aldrich #B4500) diluted in PAD4 assay buffer was then added to start the reaction. Final concentrations were 5 nM PAD4, 2 mM calcium chloride, and 3 mM BAEE. The reaction mixture was incubated at 25° C. for 2 hours and was stopped with the addition of 10 microliters of a solution of 75 mM EDTA (Ethylenediaminetetraacetic acid) in PAD4 assay buffer. Thirty microliters of detection solution (5 mM o-phthalaldehyde, 50 mM MOPS [3-(N-morpholino) propanesulfonic acid], pH 7.6; 50 mM sodium chloride; 0.05% Tween-20; 5 mM dithiothreitol) was then added and the reaction was incubated for 1 hour at 25° C. The level of fluorescent thiol-substituted isoindole resulting from the reaction of ammonia, o-phthalaldehyde, and dithiothreitol was measured on an Envision plate reader (PerkinElmer) with 405 nm excitation and 535 nm emission.
Take `COc1cc(C(=O)N2[C@H]3CC[C@@H]2[C@H](N)C3)cc2nc(-c3cc4ccc([C@@H](C)NC(=O)C5(OC)CC5)cc4n3CC3CC3)n(C)c12` [Example 142, N-((R)-1-(2-(5-((1R,2R,4S)-2-amino-7-azabicyclo[2.2.1]heptane-7-carbonyl)-7-methoxy-1-methyl-1H-benzo[d]imidazol-2-yl)-1-(cyclopropylmethyl)-1H-indol-6-yl)ethyl)-1-methoxycyclopropane-1-carboxamide]: the IC50 stood at 44.5 nM.
For the molecule `CCN(c1ccc2cc(-c3nc4cc(C(=O)N5CCC[C@@H](N)[C@H]5C)cc(OC)c4n3CC3COC3)n(CC3CC3)c2n1)S(C)(=O)=O` [Example 37, N-(2-(5-((2R,3R)-3-amino-2-methylpiperidine-1-carbonyl)-7-methoxy-1-(oxetan-3-ylmethyl)-1H-benzo[d]imidazol-2-yl)-1-(cyclopropylmethyl)-1H-pyrrolo [2,3-b]pyridin-6-yl)-N-ethylmethanesulfonamide], the IC50 was found to be 235 nM.
`CCN(c1ccc2cc(-c3nc4cc(C(=O)N5CCC[C@@H](N)[C@H]5C)cc(OC)c4n3CCOC)n(CC3CC3)c2n1)S(C)(=O)=O` [Example 41, N-(2-(5-((2R,3R)-3-amino-2-methylpiperidine-1-carbonyl)-7-methoxy-1-(2-methoxyethyl)-1H-benzo[d]imidazol-2-yl)-1-(cyclopropylmethyl)-1H-pyrrolo [2,3-b]pyridin-6-yl)-N-ethylmethanesulfonamide]: the IC50 is 229 nM.
For `COc1cc(C(=O)N2C[C@H](N)CCN2C)cc2nc(-c3cc4ccc([C@@H](C)NC(=O)c5ccccc5C(F)(F)F)nc4n3CC3CC3)n(C)c12` [Example 196, N-((R)-1-(2-(5-((R)-5-amino-2-methylhexahydropyridazine-1-carbonyl)-7-methoxy-1-methyl-1H-benzo[d]imidazol-2-yl)-1-(cyclopropylmethyl)-1H-pyrrolo[2,3-b]pyridin-6-yl)ethyl)-2-(trifluoromethyl)benzamide] the value was 129 nM; for `COc1cc(C(=O)N2[C@H]3CC[C@@H]2[C@H](N)C3)cc2nc(-c3cc4ccc(N5[C@@H](C)CCCS5(=O)=O)nc4n3CC3CC3)n(C)c12` [Example 103, ((1R,2R,4S)-2-amino-7-azabicyclo[2.2.1]heptan-7-yl) (2-(1-(cyclopropylmethyl)-6-((S)-3-methyl-1,1-dioxido-1,2-thiazinan-2-yl)-1H-pyrrolo[2,3-b]pyridin-2-yl)-7-methoxy-1-methyl-1H-benzo[d]imidazol-5-yl) methanone], 22.3 nM; for `COc1cc(C(=O)N2CCC[C@@H](N)C2)cc2nc(-c3cc4ccc([C@@H](C)NC(=O)C56CC(F)(C5)C6)nc4n3CC3CC3)n(C3CC3)c12` [Example 125, N-((R)-1-(2-(5-((R)-3-aminopiperidine-1-carbonyl)-1-cyclopropyl-7-methoxy-1H-benzo[d]imidazol-2-yl)-1-(cyclopropylmethyl)-1H-pyrrolo[2,3-b]pyridin-6-yl)ethyl)-3-fluorobicyclo[1.1.1]pentane-1-carboxamide], 71.3 nM.
As for `COc1cc(C(=O)N2C[C@H](N)CC[C@@H]2C)cc2nc(-c3cc4ccc(N5C(=O)CC[C@@H]5C)nc4n3CC3CC3)n(C)c12` [Example 285, (S)-1-(2-(5-((2S,5R)-5-amino-2-methylpiperidine-1-carbonyl)-7-methoxy-1-methyl-1H-benzo[d]imidazol-2-yl)-1-(cyclopropylmethyl)-1H-pyrrolo[2,3-b]pyridin-6-yl)-5-methylpyrrolidin-2-one], the figure is 322 nM.
As for `COc1cc(C(=O)N2CCC[C@@H](N)C2)cc2nc(-c3cc4ccc(N5CCCCS5(=O)=O)nc4n3CC3CC3)n(C)c12` [Example 97, (R)-(3-aminopiperidin-1-yl) (2-(1-(cyclopropylmethyl)-6-(1,1-dioxido-1,2-thiazinan-2-yl)-1H-pyrrolo[2,3-b]pyridin-2-yl)-7-methoxy-1-methyl-1H-benzo[d]imidazol-5-yl)methanone], the figure is 159 nM; as for `COc1cc(C(=O)N[C@@H]2CNC[C@H]2NC(=O)/C=C/CN(C)C)cc2nc(-c3cc4ccc(N(C(F)F)S(C)(=O)=O)nc4n3CC3CC3)n(C)c12` (stereo in doubt) [Example 71, 2-[1-(cyclopropylmethyl)-6-[difluoromethyl(methylsulfonyl)amino]pyrrolo[2,3-b]pyridin-2-yl]-N-[(3R,4R)-4-[[(E)-4-(dimethylamino)but-2-enoyl]amino]pyrrolidin-3-yl]-7-methoxy-1-methyl-benzimidazole-5-carboxamide], 490 nM.
On to `COc1cc(C(=O)N2CCC[C@@H](N)C2)cc2nc(-c3cc4ccc([C@@H](C)NC(=O)c5ccccc5)nc4n3CC3CC3)n(C3CC3)c12` [Example 126, N-((R)-1-(2-(5-((R)-3-aminopiperidine-1-carbonyl)-1-cyclopropyl-7-methoxy-1H-benzo[d]imidazol-2-yl)-1-(cyclopropylmethyl)-1H-pyrrolo[2,3-b]pyridin-6-yl)ethyl)benzamide], for which the IC50 worked out at 90.8 nM.
Take `COc1cc(C(=O)N2CCC[C@@H](N)C2)cc2nc(-c3cc4ccc([C@@H](C)N5CCCC5=O)nc4n3CC3CC3)n(C3CC3)c12` [Example 244, 1-((R)-1-(2-(5-((R)-3-aminopiperidine-1-carbonyl)-1-cyclopropyl-7-methoxy-1H-benzo[d]imidazol-2-yl)-1-(cyclopropylmethyl)-1H-pyrrolo[2,3-b]pyridin-6-yl)ethyl)pyrrolidin-2-one]: the IC50 came out at 49.3 nM.
For `COc1cc(C(=O)N2C[C@H](N)CC[C@@H]2C)cc2nc(-c3cc4ccc(-c5sc(C(C)C)nc5C)nc4n3CC3CC3)n(C)c12` [Example 274, ((2S,5R)-5-amino-2-methylpiperidin-1-yl)(2-(1-(cyclopropylmethyl)-6-(2-isopropyl-4-methylthiazol-5-yl)-1H-pyrrolo[2,3-b]pyridin-2-yl)-7-methoxy-1-methyl-1H-benzo[d]imidazol-5-yl)methanone] the value was 4910 nM.
As for `CCN(C(=O)OC)c1ccc2cc(-c3nc4cc(C(=O)N5CCC[C@@H](N)C5)cc(OC)c4n3C)n(CC3CC3)c2n1` [Example 111, (R)-methyl (2-(5-(3-aminopiperidine-1-carbonyl)-7-methoxy-1-methyl-1H-benzo[b]imidazol-2-yl)-1-(cyclopropylmethyl)-1H-pyrrolo [2,3-b]pyridin-6-yl) (ethyl)carbamate], the figure is 234 nM; as for `COc1cc(C(=O)N2[C@H]3CC[C@@H]2[C@H](N)C3)cc2nc(-c3cc4ccc([C@@H](C)NC(=O)c5cnn(C)c5)nc4n3CC3CC3)n(C)c12` [Example 206, N-((R)-1-(2-(5-((1R,2R,4S)-2-amino-7-azabicyclo[2.2.1]heptane-7-carbonyl)-7-methoxy-1-methyl-1H-benzo[d]imidazol-2-yl)-1-(cyclopropylmethyl)-1H-pyrrolo[2,3-b]pyridin-6-yl)ethyl)-1-methyl-1H-pyrazole-4-carboxamide], 45.5 nM; as for `COc1cc(C(=O)N2CCC[C@@H](N)C2)cc2nc(-c3cc4ccc(N(C)S(C)(=O)=O)nc4n3CC3CC3)n(CC3CC3)c12` [Example 23, (R)-N-(2-(5-(3-aminopiperidine-1-carbonyl)-1-(cyclopropylmethyl)-7-methoxy-1H-benzo[d]imidazol-2-yl)-1-(cyclopropylmethyl)-1H-pyrrolo[2,3-b]pyridin-6-yl)-N-methylmethanesulfonamide], 125 nM.

The record behind these values is patent US11878965B2, “Inhibitors of peptidylarginine deiminases” (Gilead Sciences, Inc., priority 2020, dated 2024).
